{
  "source": "PubChem BioAssay AID1963834",
  "about": "(Molecular Pharmacology Branch, DTP, NCI, 2024);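 note: spheroids exposed to compounds for 7 days before viability readout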;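 for viability, T/C: luminescence signal used as surrogate for viable cell content; 100% = DMSO vehicle control viability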",
  "tested_on": "873145-292-R-J1-PDC complex spheroid viability",
  "assay": "Anticancer human tumor 873145-292-R-J1-PDC patient-derived renal clear cell carcinoma cell line growth inhibition [POLQ]",
  "settings": "for IC50: curve of first compound; for viability, T/C: stronger effect = lower value",
  "summary_of_the_method": "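Patient-derived tumour cells were co-cultured with HUVEC and mesenchymal stem cells as multicellular spheroids at 37 °C. They were treated with POLQ inhibitors (novobiocin, ART-558, RP6685) alone or combined with other agents. Top concentrations were at or near clinical Cmax (otherwise 10 microM; SN-38 at 1 microM), decreasing in half-log steps.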",
  "data": [
    {"smiles": "COc1cccc2c1C(=O)c1c(O)c3c(c(O)c1C2=O)CC(O)(C(=O)CO)CC3OC1CC(N)C(O)C(C)O1", "note": "(configuration not stated) + Cc1cccc(N(C)C(=O)C2C(O)CCN2c2nc(C)cc(C(F)(F)F)c2C#N)c1", "values": [
      {"measurement": "IC50", "setting": "second compound 0.0316 µM", "result": 1440, "unit": "nM"},
      {"measurement": "IC50", "setting": "second compound 0.1 µM", "result": 1400, "unit": "nM"},
      {"measurement": "IC50", "setting": "second compound 0.316 µM", "result": 1350, "unit": "nM"},
      {"measurement": "IC50", "setting": "second compound 1 µM", "result": 1350, "unit": "nM"},
      {"measurement": "IC50", "setting": "second compound 3.16 µM", "result": 1140, "unit": "nM"},
      {"measurement": "IC50", "setting": "second compound 10 µM", "result": 636, "unit": "nM"},
      {"measurement": "viability, T/C", "setting": "second compound 0.0316 µM, first compound 0.0316 µM", "result": 87.6, "unit": "%"},
      {"measurement": "viability, T/C", "setting": "second compound 0.0316 µM, first compound 0.1 µM", "result": 83.7, "unit": "%"},
      {"measurement": "viability, T/C", "setting": "second compound 0.0316 µM, first compound 0.316 µM", "result": 66.1, "unit": "%"},
      {"measurement": "viability, T/C", "setting": "second compound 0.0316 µM, first compound 1 µM", "result": 71.8, "unit": "%"},
      {"measurement": "viability, T/C", "setting": "second compound 0.0316 µM, first compound 3.16 µM", "result": 2.96, "unit": "%"},
      {"measurement": "viability, T/C", "setting": "second compound 0.0316 µM, first compound 10 µM", "result": 2.02, "unit": "%"},
      {"measurement": "viability, T/C", "setting": "second compound 0.1 µM, first compound 0.0316 µM", "result": 92.2, "unit": "%"},
      {"measurement": "viability, T/C", "setting": "second compound 0.1 µM, first compound 0.1 µM", "result": 82.5, "unit": "%"},
      {"measurement": "viability, T/C", "setting": "second compound 0.1 µM, first compound 0.316 µM", "result": 66.9, "unit": "%"},
      {"measurement": "viability, T/C", "setting": "second compound 0.1 µM, first compound 1 µM", "result": 68.6, "unit": "%"},
      {"measurement": "viability, T/C", "setting": "second compound 0.1 µM, first compound 3.16 µM", "result": 4.68, "unit": "%"},
      {"measurement": "viability, T/C", "setting": "second compound 0.1 µM, first compound 10 µM", "result": 2.44, "unit": "%"},
      {"measurement": "viability, T/C", "setting": "second compound 0.316 µM, first compound 0.0316 µM", "result": 96.4, "unit": "%"},
      {"measurement": "viability, T/C", "setting": "second compound 0.316 µM, first compound 0.1 µM", "result": 75.1, "unit": "%"},
      {"measurement": "viability, T/C", "setting": "second compound 0.316 µM, first compound 0.316 µM", "result": 72.1, "unit": "%"},
      {"measurement": "viability, T/C", "setting": "second compound 0.316 µM, first compound 1 µM", "result": 66.1, "unit": "%"},
      {"measurement": "viability, T/C", "setting": "second compound 0.316 µM, first compound 3.16 µM", "result": 4.5, "unit": "%"},
      {"measurement": "viability, T/C", "setting": "second compound 0.316 µM, first compound 10 µM", "result": 2.19, "unit": "%"},
      {"measurement": "viability, T/C", "setting": "second compound 1 µM, first compound 0.0316 µM", "result": 95.8, "unit": "%"},
      {"measurement": "viability, T/C", "setting": "second compound 1 µM, first compound 0.1 µM", "result": 69.7, "unit": "%"},
      {"measurement": "viability, T/C", "setting": "second compound 1 µM, first compound 0.316 µM", "result": 71.9, "unit": "%"},
      {"measurement": "viability, T/C", "setting": "second compound 1 µM, first compound 1 µM", "result": 66.4, "unit": "%"},
      {"measurement": "viability, T/C", "setting": "second compound 1 µM, first compound 3.16 µM", "result": 3.11, "unit": "%"},
      {"measurement": "viability, T/C", "setting": "second compound 1 µM, first compound 10 µM", "result": 1.52, "unit": "%"},
      {"measurement": "viability, T/C", "setting": "second compound 3.16 µM, first compound 0.0316 µM", "result": 91.1, "unit": "%"},
      {"measurement": "viability, T/C", "setting": "second compound 3.16 µM, first compound 0.1 µM", "result": 83.5, "unit": "%"},
      {"measurement": "viability, T/C", "setting": "second compound 3.16 µM, first compound 0.316 µM", "result": 71.9, "unit": "%"},
      {"measurement": "viability, T/C", "setting": "second compound 3.16 µM, first compound 1 µM", "result": 57.1, "unit": "%"},
      {"measurement": "viability, T/C", "setting": "second compound 3.16 µM, first compound 3.16 µM", "result": 2.19, "unit": "%"},
      {"measurement": "viability, T/C", "setting": "second compound 3.16 µM, first compound 10 µM", "result": 1.66, "unit": "%"},
      {"measurement": "viability, T/C", "setting": "second compound 10 µM, first compound 0.0316 µM", "result": 84.8, "unit": "%"},
      {"measurement": "viability, T/C", "setting": "second compound 10 µM, first compound 0.1 µM", "result": 73.3, "unit": "%"},
      {"measurement": "viability, T/C", "setting": "second compound 10 µM, first compound 0.316 µM", "result": 80.3, "unit": "%"},
      {"measurement": "viability, T/C", "setting": "second compound 10 µM, first compound 1 µM", "result": 30.8, "unit": "%"},
      {"measurement": "viability, T/C", "setting": "second compound 10 µM, first compound 3.16 µM", "result": 0.94, "unit": "%"},
      {"measurement": "viability, T/C", "setting": "second compound 10 µM, first compound 10 µM", "result": 1.6, "unit": "%"}
    ]}
  ]
}
